According to paper PMC9687798, “Atypical Substrates of the Organic Cation Transporter 1” (Biomolecules, 2022):
Like-named read-outs stand apart in the source and are kept apart here.

Experiments:
OCT3 = target: T1, OCT3 (Homo sapiens, UniProt O75751); test: Cellular uptake ratio, OCT3-overexpressing HEK293 cells vs empty vector; format: cell-based
T1 construct: expressed in transfected cells; host or cells: HEK293, stably transfected; gift from Dr. Koepsell and Dr. Gorbulev (University of Würzburg)
T1 sequence (O75751 1-556): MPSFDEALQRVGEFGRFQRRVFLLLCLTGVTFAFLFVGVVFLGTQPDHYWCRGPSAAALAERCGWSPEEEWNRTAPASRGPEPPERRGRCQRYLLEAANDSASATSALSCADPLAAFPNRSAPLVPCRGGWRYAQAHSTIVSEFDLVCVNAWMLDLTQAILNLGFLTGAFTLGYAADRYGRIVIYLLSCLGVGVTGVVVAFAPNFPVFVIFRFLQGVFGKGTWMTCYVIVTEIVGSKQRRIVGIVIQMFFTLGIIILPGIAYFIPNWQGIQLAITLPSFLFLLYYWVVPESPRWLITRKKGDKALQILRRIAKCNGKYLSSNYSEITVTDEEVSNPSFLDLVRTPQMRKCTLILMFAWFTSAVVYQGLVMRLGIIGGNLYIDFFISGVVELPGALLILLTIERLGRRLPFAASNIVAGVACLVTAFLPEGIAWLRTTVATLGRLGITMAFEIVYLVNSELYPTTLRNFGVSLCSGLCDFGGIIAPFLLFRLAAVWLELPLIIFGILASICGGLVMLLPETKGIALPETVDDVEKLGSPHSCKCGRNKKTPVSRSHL
Description: (§1) The wild-type cell lines of OCT1 and OCT2, as well as the variant cell lines OCT1*2 and *3, were generated using the Flp-In system (Thermo Fisher Scientific, Darmstadt, Germany) as described in previous publications. The cell line overexpressing OCT3 was a kind gift from Dr. Koepsell and Dr. Gorbulev (University of Würzburg, Germany). Cells transfected with the empty pcDNA5/FRT vector were used for the transport experiments as a control cell line. All cells were cultured approximately up to passage 30.
(§2) Forty-eight hours before the transport experiments, 600,000 cells were plated on 12-well plates pre-coated with poly-D-lysine and incubated at 37 °C with 5% CO2. The prepared 12-well plate with cells was positioned on a heating plate pre-warmed to 37 °C. After removing the medium, the cells were washed with 37 °C HBSS+ (10 mM HEPES in Hank’s balanced salt solution, pH 7.4). Then, one pre-defined concentration of a substrate was added to each well. The incubation period was stopped by adding 2 mL of 4 °C HBSS+ and removing the cells from the heating plate. The cells were washed twice with 4 °C HBSS+. For cell lysis, the cells were incubated for 15 min with 500 µL of 80% acetonitrile (LGC Standards, Wesel, Germany), which contained a respective internal standard (Table 1).
(§3) For concentration-dependent transport, the cells were incubated with defined substrate concentrations (0.1, 1, 10, 30, 100, 300, 600, 1000 µM) for the respective pre-defined incubation times. […] The uptake by a transporter was normalised to the uptake by empty vector-transfected cells. […] The results of transport experiments were normalized to the total protein concentration per well. Total protein quantification was performed using a bicinchoninic acid assay with bovine serum albumin as standard.
(§4) The ratios of cellular uptake were calculated by dividing the total uptake of transporter-overexpressing cells by the total uptake into empty vector transfected cells. The concentration-dependent cellular net uptake was used for analysis of transport kinetics by subtracting for each substrate concentration the uptake of empty vector-transfected cells from the uptake of transporter-overexpressing cells. […] The intrinsic clearance Clint was expressed with the ratio of Vmax and KM.

human OCT1*1 (wild-type) [1] = target: T2, human OCT1*1 (wild-type) (Homo sapiens, UniProt O15245); test: Concentration-dependent uptake (transport kinetics) in HEK293 cells overexpressing OCT1 wild-type; conditions: for Clint (±SEM): intrinsic clearance = ratio of Vmax and KM, OCT1 wild-type
T2 sequence (O15245 1-554): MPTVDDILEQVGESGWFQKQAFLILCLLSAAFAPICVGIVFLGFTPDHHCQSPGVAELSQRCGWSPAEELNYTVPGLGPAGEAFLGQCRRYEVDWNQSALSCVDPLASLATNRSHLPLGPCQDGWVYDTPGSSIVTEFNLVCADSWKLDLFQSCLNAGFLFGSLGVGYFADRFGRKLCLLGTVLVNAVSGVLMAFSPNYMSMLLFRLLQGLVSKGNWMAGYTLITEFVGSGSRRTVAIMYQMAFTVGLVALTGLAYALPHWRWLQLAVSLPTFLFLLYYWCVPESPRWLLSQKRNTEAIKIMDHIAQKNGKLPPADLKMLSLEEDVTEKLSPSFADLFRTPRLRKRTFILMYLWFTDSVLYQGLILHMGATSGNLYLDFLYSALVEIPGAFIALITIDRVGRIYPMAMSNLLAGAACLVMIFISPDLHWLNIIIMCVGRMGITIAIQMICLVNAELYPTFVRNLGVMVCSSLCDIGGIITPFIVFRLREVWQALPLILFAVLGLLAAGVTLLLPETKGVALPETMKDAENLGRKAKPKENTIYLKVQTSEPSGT

wild-type human OCT2 = target: T3, wild-type human OCT2 (Homo sapiens, UniProt O15244); test: Cellular uptake ratio, OCT2-overexpressing HEK293 cells vs empty vector; format: cell-based
T3 sequence (O15244 1-555): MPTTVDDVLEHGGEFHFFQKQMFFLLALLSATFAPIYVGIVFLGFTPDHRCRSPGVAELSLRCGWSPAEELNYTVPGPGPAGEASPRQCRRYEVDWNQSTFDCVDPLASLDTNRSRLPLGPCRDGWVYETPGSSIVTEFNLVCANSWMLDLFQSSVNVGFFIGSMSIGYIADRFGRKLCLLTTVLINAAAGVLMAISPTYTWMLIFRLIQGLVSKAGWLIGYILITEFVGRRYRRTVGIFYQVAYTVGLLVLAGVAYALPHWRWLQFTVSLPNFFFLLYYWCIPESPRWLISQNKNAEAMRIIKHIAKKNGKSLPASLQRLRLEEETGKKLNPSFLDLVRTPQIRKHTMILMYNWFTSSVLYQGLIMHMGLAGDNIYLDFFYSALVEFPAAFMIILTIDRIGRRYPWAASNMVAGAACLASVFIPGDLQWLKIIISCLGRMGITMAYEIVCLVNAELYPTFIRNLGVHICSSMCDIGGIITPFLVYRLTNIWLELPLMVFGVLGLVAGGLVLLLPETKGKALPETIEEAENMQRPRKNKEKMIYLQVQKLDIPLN
Description: as §1, §2, §3, §4

human OCT1*1 (wild-type) [2] = target: T2, human OCT1*1 (wild-type); test: Cellular uptake ratio, OCT1-overexpressing HEK293 cells vs empty vector; format: cell-based
Description: as §1, §2, §3, §4

[3] = based on ratio uptake data at 1 µM
[4] = good >5, poor 1–5, non-substrate <1 µL/mg protein/min or uptake not above empty vector
[5] = based on ratio uptake data at 100 µM (footnote *)
[6] = net uptake (OCT1 minus empty vector), HEK293, 0.1-1000 µM substrate, Michaelis–Menten

## Nc1nc2c(ncn2COCCO)c(=O)[nH]1 [Acyclovir, acyclovir]
OCT3; [3]
  OCT3 transport category: 0 (no transport by OCT1, OCT2, and OCT3 occurred (i.e., no kinetic parameters or uptake ratio <2 without significance))

## C[C@H](CS)C(=O)N1CCC[C@H]1C(=O)O [Captopril, captopril]
OCT3; [3]
  OCT3 transport category: 0 (no transport by OCT1, OCT2, and OCT3 occurred (i.e., no kinetic parameters or uptake ratio <2 without significance))

## C[C@@](Cc1ccc(O)c(O)c1)(NN)C(=O)O [Carbidopa, carbidopa]
Human OCT1*1 (wild-type) [1]; [4]
  OCT1 substrate classification from concentration-dependent uptake: linear increase in total uptake of both cell lines
OCT3; [5]
  OCT3 transport category: 0 (no transport by OCT1, OCT2, and OCT3 occurred (i.e., no kinetic parameters or uptake ratio <2 without significance))
wild-type human OCT2; [5]
  OCT2 transport category: 0 (no transport by OCT1, OCT2, and OCT3 occurred (i.e., no kinetic parameters or uptake ratio <2 without significance))
Human OCT1*1 (wild-type) [2]; [5]
  OCT1 transport category: 0 (no transport by OCT1, OCT2, and OCT3 occurred (i.e., no kinetic parameters or uptake ratio <2 without significance))

## Nc1ccn([C@@H]2O[C@H](CO)[C@@H](O)[C@@H]2O)c(=O)n1 [Cytarabine, cytarabine]
Human OCT1*1 (wild-type) [1]
  OCT1 substrate classification from concentration-dependent uptake: none of the four antimetabolites showed uptake by OCT1

## Nc1ncn([C@H]2C[C@H](O)[C@@H](CO)O2)c(=O)n1 [Decitabine, decitabine]
Human OCT1*1 (wild-type) [1]; [4]
  OCT1 substrate classification from concentration-dependent uptake: none of the four antimetabolites showed uptake by OCT1

## C=C1[C@H](CO)[C@@H](O)C[C@@H]1n1cnc2c(=O)[nH]c(N)nc21 [Entecavir, entecavir]
OCT3; [3]
  OCT3 transport category: 0 (no transport by OCT1, OCT2, and OCT3 occurred (i.e., no kinetic parameters or uptake ratio <2 without significance))

## Nc1nc(O)c2ncn(COC(CO)CO)c2n1 [Ganciclovir, ganciclovir]
OCT3; [3]
  OCT3 transport category: 0 (no transport by OCT1, OCT2, and OCT3 occurred (i.e., no kinetic parameters or uptake ratio <2 without significance))

## Nc1ccn([C@@H]2O[C@H](CO)[C@@H](O)C2(F)F)c(=O)n1 [Gemcitabine, gemcitabine]
Human OCT1*1 (wild-type) [1]; [4]
  OCT1 substrate classification from concentration-dependent uptake: none of the four antimetabolites showed uptake by OCT1

## Cc1ccc(NC(=O)c2ccc(CN3CCN(C)CC3)cc2)cc1Nc1nccc(-c2cccnc2)n1 [Imatinib, imatinib]
Human OCT1*1 (wild-type) [2]
  uptake by OCT1 (normalised to empty vector): did not show uptake by OCT1

## C[C@H]1COc2c(N3CCN(C)CC3)c(F)cc3c(=O)c(C(=O)O)cn1c23 [Levofloxacin, levofloxacin]
Human OCT1*1 (wild-type) [1]
  OCT1 substrate classification from concentration-dependent uptake: poor substrate of OCT1
  Clint (±SEM): 3.77 ± 2.77 µL/mg Protein/min
OCT3; [3]
  OCT3 transport category: 0 (no transport by OCT1, OCT2, and OCT3 occurred (i.e., no kinetic parameters or uptake ratio <2 without significance))

## C[n+]1ccc(-c2ccccc2)cc1 [MPP^+, 1-methyl-4-phenylpyridinium]
Human OCT1*1 (wild-type) [1]
  Clint (±SEM): 20.8 ± 5.04 µL/mg Protein/min
Human OCT1*1 (wild-type) [1]; [6]
  Vmax (±SEM): 2263 ± 184 pmol/mg Protein/min
Human OCT1*1 (wild-type) [1]; read-out: KM (±SEM), net uptake (OCT1 minus empty vector), HEK293, 0.1-1000 µM substrate, Michaelis–Menten
  Km: 108 ± 17.4 µM
OCT3; 1 µM and 100 µM substance
  uptake ratio by OCT3 (normalised to empty vector): relevant uptake
OCT3; [3]
  OCT3 transport category: ++ (very good substrates of OCTs that have an intrinsic clearance >15 or show an uptake ratio >10)
wild-type human OCT2; [3]
  OCT2 transport category: ++ (very good substrates of OCTs that have an intrinsic clearance >15 or show an uptake ratio >10)
Human OCT1*1 (wild-type) [2]; 1 µM and 100 µM substance
  uptake ratio by OCT1 (normalised to empty vector): up to 30
Human OCT1*1 (wild-type) [2]; [3]
  OCT1 transport category: ++ (very good substrates of OCTs that have an intrinsic clearance >15 or show an uptake ratio >10)

## C[N+]1(C)CCC[C@H]1C(=O)[O-] [Stachydrine, stachydrine]
Human OCT1*1 (wild-type) [1]; [4]
  OCT1 substrate classification from concentration-dependent uptake: very poor OCT1-mediated transport
Human OCT1*1 (wild-type) [1]; [6]
  Vmax (±SEM): 238 ± 134 pmol/mg Protein/min
OCT3; [3]
  OCT3 transport category: 0 (no transport by OCT1, OCT2, and OCT3 occurred (i.e., no kinetic parameters or uptake ratio <2 without significance))
wild-type human OCT2; [3]
  OCT2 transport category: 0 (no transport by OCT1, OCT2, and OCT3 occurred (i.e., no kinetic parameters or uptake ratio <2 without significance))
Human OCT1*1 (wild-type) [2]; [3]
  OCT1 transport category: 0 (no transport by OCT1, OCT2, and OCT3 occurred (i.e., no kinetic parameters or uptake ratio <2 without significance))

## O=c1ncccn1[C@@H]1O[C@H](CO)[C@@H](O)[C@H]1O [Zebularine, zebularine]
Human OCT1*1 (wild-type) [1]; [4]
  OCT1 substrate classification from concentration-dependent uptake: none of the four antimetabolites showed uptake by OCT1
